Data taken from patent publication US12378528B2, “Systems and methods for growth of intestinal cells in microfluidic devices” (EMULATE, INC., priority 2016, dated 2025).

Legend:
[1] = test system: mitochondrial respiration in iHTNs; assay: Seahorse mitochondrial stress test in iHTNs; format: cell-based, human
Method: (§1) The Seahorse XF^e24 Extracellular Flux Analyzer (Seahorse Biosciences) was used to perform mitochondrial stress tests and obtain real-time measurements of oxygen consumption rate (OCR) in cells. iFGEs and iHTNS treated with or without EDCs were seeded in a 24-well Seahorse culture plate at a density of 10,000-15,000 cells/well. For analysis of OCR, cells were reconstituted in Seahorse base medium and were allowed to settle for 1 hour at 37° C. in non-CO2 incubator before measurements. Chemical reagents (Sigma) were used at final concentrations as follows: 1 μM Oligomycin—an ATP synthase inhibitor, 1 μM (FCCP) carbonyl cyanide 4-(trifluoromethoxy)phenylhydrazone—an uncoupling agent, and a mixture of 0.5 μM antimycin A—a cytochrome C reductase inhibitor and 0.5 μM rotenone—a complex I inhibitor. Results were normalized to protein concentration determined by BCA assay (Thermo Scientific).

[2] = test system: mitochondrial respiration in iFGEs; assay: Seahorse mitochondrial stress test in iFGEs; format: cell-based, human
Method: as §1

[3] = test system: STAT1 and IFNgamma responsive genes; assay: STAT1 phosphorylation and gene expression in iPSC-derived intestinal epithelium on microfluidic device; format: cell-based, human; settings: administration to the lower channel
Method: In one embodiment, iPSCs were directed to form HIOs and were subsequently dissociated to a single cell suspension. These cells were then seeded into a small microfluidic device (SMD) which is composed of two chambers separated by a porous flexible membrane. See, FIG. 40.

Caco2 cells = assay: Gene expression in Caco2 cells treated with IFNgamma; format: cell-based, human
[4] = test system: human intestinal epithelial cells derived from IPSCs; assay: Transepithelial electrical resistance (TEER) on microfluidic chip; format: cell-based; settings: IFNgamma 10 ng/ml, basal administration, over time, n=4
Method: (§2) Intestinal epithelium, derived from iPSCs, is seeded onto the microfluidic device followed by characterization of intestinal epithelial subtypes. Functional assays, including an examination of permeability via transepithelial resistance and dextran FITC efflux will be assessed either under basal conditions or in response to inflammatory cytokines such as interferon-gamma (IFNg) and/or tumor necrosis factor-alpha (TNFalpha). Also drug candidates that may modulate the various intestinal epithelial subtypes will be examined to assess if such subtypes can indeed be modulated. After establishing such assays, IPSCs from genetically defined inflammatory bowel disease (IBD) patients will be generated, differentiated into intestinal organoids, disassociated and subsequently seeded onto the microfluidic devices and the functional consequences of the genetic variations associated with IBD will be assessed.
(§3) Human intestinal epithelial cells derived from IPSCs were treated with 10 ng/ml of IFNgamma. The basal administration of IFNg leads to a decrease in transepithelial resistance and an increase in the efflux of dextran FITC in human intestinal epithelial cells derived from IPSCs. Basically this means that the intestinal epithelium is more permeable in response to this cytokine.

[5] = test system: human intestinal epithelial cells derived from IPSCs; assay: FITC dextran permeability on microfluidic chip; format: cell-based; settings: for permeability co-efficient of FITC dextran added to the apical channel / efflux of dextran FITC / accumulation in the basal layer: IFNgamma 10 ng/ml; for efflux of dextran FITC / accumulation in the basal layer: dextran added to apical channel
Method: as §2, §3

| Compound | effect on mitochondrial spare respiratory capacity [1] | effect on mitochondrial spare respiratory capacity [2] | transepithelial electrical resistance (TEER) [4] | permeability co-efficient of FITC dextran added to the apical channel [5] | efflux of dextran FITC / accumulation in the basal layer [5] | also measured |
| --- | --- | --- | --- | --- | --- | --- |
| Cc1cc(C(C)(C)C)c(O)c(C(C)(C)C)c1 [BHT, Butylated hydroxytoluene] | significant impairment | significant decrease | – | – | – | – |
| O=C(O)C(F)(F)C(F)(F)C(F)(F)C(F)(F)C(F)(F)C(F)(F)C(F)(F)F [PFOA, Perfluorooctanoic acid] | did not show any effect | did not show any effect | – | – | – | – |
| IFNgamma: inflammatory cytokine interferon-gamma | – | – | loss of transepithelial electrical resistance | increase | increase | expression of IFNgamma responsive genes IDO1, GBP4 and/or GBP5 [3]: significant upregulation; expression of phospholipase A2 group 2A and Muc4 [3]: also upregulated; phosphorylation of STAT1 [3]: phosphorylation of STAT1; expression of genes associated with intestinal epithelial subtypes (Caco2 cells): no corresponding upregulation; transepithelial electrical resistance (TEER) ([4]; listed as IFNg): decrease; efflux of dextran FITC / accumulation in the basal layer ([5]; listed as INFgamma): accumulation in the basal layer |
| TNFalpha | – | – | increased TEER over time comparable to controls | comparable | comparable | intestinal permeability ([5]; addition of TNFa): does not elicit any change |
| Tributyltin [TBT] | significant impairment | – | – | – | – | – |
